Counter-ions that a name gives are not always drawn.
Target: HCV NS5B polymerase (Hepatitis C virus genotype 1b, UniProt P26663)
Experiment: biochemical
Details: HCV polymerase inhibition, 50 nM enzyme, 2 h at room temperature, FlashPlate [α-33P]GTP incorporation
Method: NS5B Polymerase Inhibition Assay (IC50)
Compounds were tested for HCV polymerase inhibition. Assays were performed in a 96-well streptavidin-coated FlashPlate using 50 nM enzyme, 0.5 μCi of [α-^33P]GTP, 0.6 μM GTP, and 50 nM 5′biotinylated oligo (rG13)/poly rC in 20 mM Tris-HCl, pH 7.5, 5 mM MgCl2, 20 mM NaCl, 5 mM dithiothreitol, and 0.1 g/L BSA. The reaction was stopped by aspiration after 2 h at room temperature and the plate was washed several times. After washing, incorporated radioactivity was counted using a Microbeta scintillation counter.

Chain of HCV NS5B polymerase (P26663 2420-3010): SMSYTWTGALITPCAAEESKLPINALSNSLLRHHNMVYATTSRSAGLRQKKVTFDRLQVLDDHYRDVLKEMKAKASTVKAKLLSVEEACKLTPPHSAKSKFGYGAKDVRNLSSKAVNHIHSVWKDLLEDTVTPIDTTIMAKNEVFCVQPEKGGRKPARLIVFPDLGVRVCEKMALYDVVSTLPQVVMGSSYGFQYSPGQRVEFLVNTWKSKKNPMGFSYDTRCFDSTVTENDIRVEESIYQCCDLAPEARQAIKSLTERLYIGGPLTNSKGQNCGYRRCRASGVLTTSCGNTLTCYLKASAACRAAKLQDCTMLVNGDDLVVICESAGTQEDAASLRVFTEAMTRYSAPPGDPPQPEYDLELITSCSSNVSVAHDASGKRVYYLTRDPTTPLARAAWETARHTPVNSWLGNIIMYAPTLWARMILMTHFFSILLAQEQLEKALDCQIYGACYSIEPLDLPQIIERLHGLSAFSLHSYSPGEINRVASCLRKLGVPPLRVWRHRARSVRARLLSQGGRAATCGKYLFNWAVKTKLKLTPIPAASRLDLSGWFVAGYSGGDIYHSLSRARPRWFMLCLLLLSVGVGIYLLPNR

Row | Compound | IC50
1 | CS(=O)(=O)Nc1ccc2c(c1)S(=O)(=O)NC(c1c(O)c(-c3ccccc3)nn(CC3CC3)c1=O)=N2 [N-[3-(2-Cyclopropylmethyl-5-hydroxy-3-oxo-6-phenyl-2,3-dihydro-pyridazin-4-yl)-1,1-dioxo-1,2-dihydro-1l6-benzo[1,2,4]thiadiazin-7-yl]-methanesulfonamide] | 100 to 1000 nM
2 | CCC(C)n1nc(-c2cccs2)c(O)c(C2=NS(=O)(=O)c3cc(NS(C)(=O)=O)ccc3N2)c1=O (stereo not shown) [N-[3-(2-sec-Butyl-5-hydroxy-3-oxo-6-thiophen-2-yl-2,3-dihydro-pyridazin-4-yl)-1,1-dioxo-1,2-dihydro-1λ^6-benzo[1,2,4]thiadiazin-7-yl]-methanesulfonamide] | 100 to 1000 nM
3 | CC(C)CC(C)n1nc(-c2cccs2)c(O)c(C2=NS(=O)(=O)c3cc(NS(C)(=O)=O)ccc3N2)c1=O (stereo not shown) [N-{3-[2-(1,3-Dimethyl-butyl)-5-hydroxy-3-oxo-6-thiophen-2-yl-2,3-dihydro-pyridazin-4-yl]-1,1-dioxo-1,2-dihydro-1λ^6-benzo[1,2,4]thiadiazin-7-yl}-methanesulfonamide] | 100 to 1000 nM
4 | CS(=O)(=O)Nc1ccc2c(c1)S(=O)(=O)N=C(c1c(O)c(-c3cccs3)nn(CCC3CCCCC3)c1=O)N2 [N-{3-[2-(2-Cyclohexyl-ethyl)-5-hydroxy-3-oxo-6-thiophen-2-yl-2,3-dihydro-pyridazin-4-yl]-1,1-dioxo-1,2-dihydro-1λ^6-benzo[1,2,4]thiadiazin-7-yl}-methanesulfonamide] | 100 to 1000 nM
5 | CS(=O)(=O)Nc1ccc2c(c1)S(=O)(=O)NC(c1c(O)c(-c3ccsc3)nn(CCC3CC3)c1=O)=N2 [N-{3-[2-(2-Cyclopropyl-ethyl)-5-hydroxy-3-oxo-6-thiophen-3-yl-2,3-dihydro-pyridazin-4-yl]-1,1-dioxo-1,2-dihydro-1λ^6-benzo[1,2,4]thiadiazin-7-yl}-methanesulfonamide] | < 100 nM
6 | CC(C)=Cc1nn(CCC2CC2)c(=O)c(C2=Nc3ccc(NS(C)(=O)=O)cc3S(=O)(=O)N2)c1O [N-{3-[2-(2-Cyclopropyl-ethyl)-5-hydroxy-6-(2-methyl-propenyl)-3-oxo-2,3-dihydro-pyridazin-4-yl]-1,1-dioxo-1,2-dihydro-1λ^6-benzo[1,2,4]thiadiazin-7-yl}-methanesulfonamide] | < 100 nM
7 | CC(C)(C)CCn1nc(-c2cccs2)c(O)c(C2=NS(=O)(=O)c3cc(NS(N)(=O)=O)ccc3N2)c1=O [N-{3-[2-(3,3-Dimethyl-butyl)-5-hydroxy-3-oxo-6-thiophen-2-yl-2,3-dihydro-pyridazin-4-yl]-1,1-dioxo-1,2-dihydro-1λ^6-benzo[1,2,4]thiadiazin-7-yl}-sulfamide] | < 100 nM
8 | CCC(C)(C)CCn1nc(-c2cccs2)c(O)c(C2=NS(=O)(=O)c3cc(NS(C)(=O)=O)ccc3N2)c1=O [N-{3-[2-(3,3-Dimethyl-pentyl)-5-hydroxy-3-oxo-6-thiophen-2-yl-2,3-dihydro-pyridazin-4-yl]-1,1-dioxo-1,2-dihydro-1λ^6-benzo[1,2,4]thiadiazin-7-yl}-methanesulfonamide] | < 100 nM
9 | CC(C)(C)CCn1nc(-c2cccs2)c(O)c(C2=Nc3ccc(NS(C)(=O)=O)cc3S(=O)(=O)N2)c1=O [N-{3-[2-(3,3-dimethyl-butyl)-5-hydroxy-3-oxo-6-thiophen-2-yl-2,3-dihydro-pyridazin-4-yl]-1,1-dioxo-1,2-dihydro-1λ^6-benzo[1,2,4]thiadiazin-7-yl}-methanesulfonamide, sodium salt] | < 100 nM
10 | CS(=O)(=O)Nc1ccc2c(c1)S(=O)(=O)N=C(c1c(O)c(-c3cccs3)nn(Cc3ccc(F)c(Cl)c3)c1=O)N2 [N-{3-[2-(3-Chloro-4-fluoro-benzyl)-5-hydroxy-3-oxo-6-thiophen-2-yl-2,3-dihydro-pyridazin-4-yl]-1,1-dioxo-1,2-dihydro-1λ^6-benzo[1,2,4]thiadiazin-7-yl}-methanesulfonamide] | < 100 nM
11 | CS(=O)(=O)Nc1ccc2c(c1)S(=O)(=O)NC(c1c(O)c(-c3cncs3)nn(Cc3ccc(F)cc3)c1=O)=N2 [N-{3-[2-(4-Fluoro-benzyl)-5-hydroxy-3-oxo-6-thiazol-5-yl-2,3-dihydro-pyridazin-4-yl]-1,1-dioxo-1,2-dihydro-1λ^6-benzo[1,2,4]thiadiazin-7-yl}-methanesulfonamide] | < 100 nM
12 | CS(=O)(=O)Nc1ccc2c(c1)S(=O)(=O)N=C(c1c(O)c(-c3cccs3)nn(Cc3ccc(F)cc3)c1=O)N2 [N-{3-[2-(4-Fluoro-benzyl)-5-hydroxy-3-oxo-6-thiophen-2-yl-2,3-dihydro-pyridazin-4-yl]-1,1-dioxo-1,2-dihydro-1λ^6-benzo[1,2,4]thiadiazin-7-yl}-methanesulfonamide] | < 100 nM
13 | CN1C(c2c(O)c(-c3cccs3)nn(Cc3ccc(F)cc3)c2=O)=NS(=O)(=O)c2cc(NS(C)(=O)=O)ccc21 [N-{3-[2-(4-Fluoro-benzyl)-5-hydroxy-3-oxo-6-thiophen-2-yl-2,3-dihydro-pyridazin-4-yl]-4-methyl-1,1-dioxo-1,4-dihydro-1λ^6-benzo[1,2,4]thiadiazin-7-yl}-methanesulfonamide] | 1000 to 10000 nM
14 | CN(c1ccc2c(c1)S(=O)(=O)NC(c1c(O)c(CC(C)(C)C)nn(CC3CCC3)c1=O)=N2)S(C)(=O)=O [N-{3-[2-Cyclobutylmethyl-6-(2,2-dimethyl-propyl)-5-hydroxy-3-oxo-2,3-dihydro-pyridazin-4-yl]-1,1-dioxo-1,2-dihydro-1λ^6-benzo[1,2,4]thiadiazin-7-yl}-N-methyl-methanesulfonamide] | 1000 to 10000 nM
15 | CCCC(C)n1nc(-c2cccs2)c(O)c(C2=NS(=O)(=O)c3cc(NS(C)(=O)=O)ccc3N2)c1=O (stereo not shown) [N-{3-[5-Hydroxy-2-(1-methyl-butyl)-3-oxo-6-thiophen-2-yl-2,3-dihydro-pyridazin-4-yl]-1,1-dioxo-1,2-dihydro-1λ^6-benzo[1,2,4]thiadiazin-7-yl}-methanesulfonamide] | 100 to 1000 nM
16 | COCCn1nc(-c2cccs2)c(O)c(C2=NS(=O)(=O)c3cc(NS(C)(=O)=O)ccc3N2)c1=O [N-{3-[5-Hydroxy-2-(2-methoxy-ethyl)-3-oxo-6-thiophen-2-yl-2,3-dihydro-pyridazin-4-yl]-1,1-dioxo-1,2-dihydro-1λ^6-benzo[1,2,4]thiadiazin-7-yl}-methanesulfonamide] | < 100 nM
17 | COC(C)(C)CCn1nc(-c2cccs2)c(O)c(C2=NS(=O)(=O)c3cc(NS(C)(=O)=O)ccc3N2)c1=O [N-{3-[5-Hydroxy-2-(3-methoxy-3-methyl-butyl)-3-oxo-6-thiophen-2-yl-2,3-dihydro-pyridazin-4-yl]-1,1-dioxo-1,2-dihydro-1λ^6-benzo[1,2,4]thiadiazin-7-yl}-methanesulfonamide] | < 100 nM

Now from value to molecule:

Row | IC50 | Compound
18 | < 100 nM | CS(=O)(=O)Nc1ccc2c(c1)S(=O)(=O)NC(c1c(O)c(-c3cncs3)nn(CC3CCC3)c1=O)=N2 [N-[3-(2-Cyclobutylmethyl-5-hydroxy-3-oxo-6-thiazol-5-yl-2,3-dihydro-pyridazin-4-yl)-1,1-dioxo-1,2-dihydro-1λ^6-benzo[1,2,4]thiadiazin-7-yl]-methanesulfonamide]
19 | < 100 nM | CS(=O)(=O)Nc1ccc2c(c1)S(=O)(=O)NC(c1c(O)c(-c3cccs3)nn(CC3CCC3)c1=O)=N2 [N-[3-(2-Cyclobutylmethyl-5-hydroxy-3-oxo-6-thiophen-2-yl-2,3-dihydro-pyridazin-4-yl)-1,1-dioxo-1,2-dihydro-1λ^6-benzo[1,2,4]thiadiazin-7-yl]-methanesulfonamide]
20 | < 100 nM | CS(=O)(=O)Nc1ccc2c(c1)S(=O)(=O)NC(c1c(O)c(-c3cccs3)nn(Cc3ccccn3)c1=O)=N2 [N-[3-(5-Hydroxy-3-oxo-2-pyridin-2-ylmethyl-6-thiophen-2-yl-2,3-dihydro-pyridazin-4-yl)-1,1-dioxo-1,2-dihydro-1λ^6-benzo[1,2,4]thiadiazin-7-yl]-methanesulfonamide]
21 | < 100 nM | CS(=O)(=O)Nc1ccc2c(c1)S(=O)(=O)N=C(c1c(O)c(-c3cccs3)nn(Cc3ccsc3)c1=O)N2 [N-[3-(5-Hydroxy-3-oxo-6-thiophen-2-yl-2-thiophen-3-ylmethyl-2,3-dihydro-pyridazin-4-yl)-1,1-dioxo-1,2-dihydro-1λ^6-benzo[1,2,4]thiadiazin-7-yl]-methanesulfonamide]
22 | < 100 nM | CC(C)(C)Cn1nc(-c2cccs2)c(O)c(C2=Nc3ccc(NS(C)(=O)=O)cc3S(=O)(=O)N2)c1=O [N-{3-[2-(2,2-Dimethyl-propyl)-5-hydroxy-3-oxo-6-thiophen-2-yl-2,3-dihydro-pyridazin-4-yl]-1,1-dioxo-1,2-dihydro-1λ^6-benzo[1,2,4]thiadiazin-7-yl}-methanesulfonamide]
23 | < 100 nM | CS(=O)(=O)Nc1ccc2c(c1)S(=O)(=O)N=C(c1c(O)c(-c3cccs3)nn(CCC3CCCC3)c1=O)N2 [N-{3-[2-(2-Cyclopentyl-ethyl)-5-hydroxy-3-oxo-6-thiophen-2-yl-2,3-dihydro-pyridazin-4-yl]-1,1-dioxo-1,2-dihydro-1λ^6-benzo[1,2,4]thiadiazin-7-yl}-methanesulfonamide]
24 | < 100 nM | CS(=O)(=O)Nc1ccc2c(c1)S(=O)(=O)NC(c1c(O)c(-c3cncs3)nn(CCC3CC3)c1=O)=N2 [N-{3-[2-(2-Cyclopropyl-ethyl)-5-hydroxy-3-oxo-6-thiazol-5-yl-2,3-dihydro-pyridazin-4-yl]-1,1-dioxo-1,2-dihydro-1λ^6-benzo[1,2,4]thiadiazin-7-yl}-methanesulfonamide]
25 | < 100 nM | CS(=O)(=O)Nc1ccc2c(c1)S(=O)(=O)N=C(c1c(O)c(-c3cccs3)nn(CCC3CC3)c1=O)N2 [N-{3-[2-(2-Cyclopropyl-ethyl)-5-hydroxy-3-oxo-6-thiophen-2-yl-2,3-dihydro-pyridazin-4-yl]-1,1-dioxo-1,2-dihydro-1λ^6-benzo[1,2,4]thiadiazin-7-yl}-methanesulfonamide]

Source: US20080275032A1, “Pyridazinone compounds” (priority 2006, published 2008)
